These are literature values, as cited in the CATMoS acute toxicity set (Mansouri et al. 2021).

Where “and” joins values, the source holds several entries; their conditions need not be identical. Identical values can stand only once.

This series is described as follows: rat acute oral toxicity. To be noted: in vivo.
The term LD50 denotes the dose at which mortality reaches 50%. Turning to `COc1cc2[nH]c(C)c(CCN3CCN(c4ccccc4)CC3)c2cc1OC`, the LD50 is 1000 mg/kg.
`CN(C)CCCN1c2ccccc2CCc2cc(O)ccc21`: the LD50 is 2980 mg/kg.
`ClC(Cl)C(Cl)C(Cl)C(Cl)Cl` (stereo unspecified): the LD50 is 400 mg/kg.
Regarding `Cc1cc(C(=O)c2ccccc2)ccc1N`, the LD50 is 700 mg/kg.
Consider `Cn1c(=O)c2c(ncn2CCCN2CCN(CCCSc3ccccc3)CC2)n(C)c1=O`, for which the LD50 is 1600 mg/kg.
In the case of `O=C1OCC(CCl)O1` (stereo unspecified), the LD50 is 80 mg/kg.
With `CCCCSC(=Nc1cccnc1)SCc1ccc(C(C)(C)C)cc1`, the LD50 is 2700 mg/kg.
On to `CCc1c(C)[nH]c2c1C(=O)C1CN(C)CCC1C2` (stereo unspecified), for which the LD50 was 220 mg/kg.
On to `COC(OC)c1ccccc1`, for which the LD50 is 1220 mg/kg.
Regarding `Nc1nc2cc(Br)ccc2o1`, the LD50 is 1000 mg/kg.
Consider `COc1nc(C(F)(F)F)nc(=NC(O)=NS(=O)(=O)c2ccccc2C(F)(F)F)[nH]1`, for which the LD50 was 4700 mg/kg.
In the case of `CCOC(=O)CSP(=S)(OCC)OCC`, the LD50 is 1100 mg/kg.
Take `COc1ccc(C(=O)CCC(=O)O)c2cc(C)oc12`: the LD50 is 2160 mg/kg.
Take `OCC1CCCCO1` (stereo unspecified): the LD50 is 3730 mg/kg.
For `NC(=S)NC(=S)Nc1ccccc1`, the LD50 is 250 mg/kg.
For the compound `CC1C(C)(C)C2=C(C(=O)CCC2)C1(C)C` (stereo unspecified), the LD50 was 2900 mg/kg.
For the compound `OCc1ccc(OCCn2ccnc2)cc1`, the LD50 is 4860 mg/kg.
For `OCCC(F)(F)C(F)(F)C(F)(F)C(F)(F)C(F)(F)C(F)(F)F`, the LD50 was 1750 mg/kg.
As for `CCCOC=O`, the LD50 was 3980 mg/kg.
As for `CCCCCCCOCCOCCO`, the LD50 is 2940 mg/kg.
Regarding `c1ccc(CC2CCNCC2)cc1`, the LD50 was 540 mg/kg.
With `C=C1C[C@]23C[C@@]1(O)CC[C@H]2[C@@]12C=C[C@H](O)[C@@](C)(C(=O)O1)[C@H]2[C@@H]3C(=O)O`, the LD50 was 6300 mg/kg.
As for `CCCCNC1CCCCC1`, the LD50 was 330 mg/kg.
For `O=C(O)c1ccccc1Nc1c(Cl)cc(Cl)c2ccccc12`, the LD50 is 8500 mg/kg.
On to `CN(C)C(=O)Oc1ccccc1C1SCCS1`, for which the LD50 is 16 mg/kg.
Consider `CCOC(=O)C1=C(COCCOCCN)NC(C)=C(C(=O)OC)[C@@H]1c1cccc(Cl)c1Cl`, for which the LD50 was 136 mg/kg.
Consider `CCCOP(=O)(OCCC)Oc1cnn(C)c(=O)c1OC`, for which the LD50 is 15 mg/kg.
Take `Nc1nc2cc(I)ccc2o1`: the LD50 was 1000 mg/kg.
Regarding `CCOC(=O)N(c1cccc(C(=O)c2ccccc2)c1)S(=O)(=O)C(F)(F)F`, the LD50 was 4700 mg/kg.
`C1CCC2OCCOCCOC3CCCCC3OCCOCCOC2C1` (stereo unspecified): the LD50 was 176 mg/kg.
As to `CC1(C)S[C@@H]2[C@H](NC(=O)C3(N)CCCCC3)C(=O)N2[C@H]1C(=O)O`, the LD50 was 5010 mg/kg.
As to `C=CCOC(=O)OC(=C)C(=O)OCC=C`, the LD50 is 390 mg/kg.
Regarding `CCCCNC(=O)NS(=O)(=O)c1ccc(C)cc1`, the LD50 was 2490 mg/kg.
`CCCCCCOCCO`: the LD50 was 830 mg/kg.
For the compound `COc1ccc(OC)c(Cc2cnc3nc(N)nc(N)c3c2C)c1`, the LD50 was 1170 mg/kg.
Consider `CC=C1CC(C)C(C)(O)C(=O)OCC2=CCN3CCC(OC1=O)C23` (stereo unspecified), for which the LD50 is 85 mg/kg.
Turning to `NCCc1c[nH]c2ccccc12`, the LD50 is 300 mg/kg.
Regarding `CC(C)(C)c1ccc2c(c1)C(C)(C)CC2`, the LD50 is 15500 mg/kg.
As to `CC(C)OP(=S)(CCl)Sc1ccc(Br)cc1` (stereo unspecified), the LD50 is 23 mg/kg.
Regarding `CN(Sc1ccccc1)C(=O)Oc1cccc2c1OC(C)(C)C2`, the LD50 was 25 mg/kg.
In the case of `C[C@@H]1C[C@H]2[C@@H]3C[C@H](F)C4=CC(=O)C=C[C@]4(C)[C@H]3[C@@H](O)C[C@]2(C)[C@H]1C(=O)CO`, the LD50 is 245 mg/kg.
Take `COc1cc2c(cc1OC)-c1c(OC)c(OC)cc3c1C(C2)N(C)CC3` (stereo unspecified): the LD50 was 545 mg/kg.
On to `COC(=O)[C@H](C)N(OC)c1c(C)cccc1C`, for which the LD50 was 566 mg/kg.
With `CCCOC(=O)C1COc2ccccc2O1` (stereo unspecified), the LD50 was 7450 mg/kg.
For the compound `ON=C1C=CC(=NO)C=C1`, the LD50 was 464 mg/kg.
In the case of `CCCCCCCCCC(=O)NP(=O)(OC)SC` (stereo unspecified), the LD50 is 125 mg/kg.
`c1ccc2cnccc2c1`: the LD50 is 360 mg/kg.
Turning to `CCS(=O)(=O)Cl`, the LD50 was 360 mg/kg.
With `CSc1ccccc1`, the LD50 is 891 mg/kg.
Take `CCCCOC(C)COC(=O)COc1cc(Cl)c(Cl)cc1Cl` (stereo unspecified): the LD50 was 500 mg/kg.
On to `COC(=O)C=C1CCCC1`, for which the LD50 is 3360 mg/kg.
As to `CNN`, the LD50 was 58 mg/kg.
On to `COc1ccc(CCN(C)CCc2ccc(OC)c(OC)c2)cc1OC`, for which the LD50 is 178 mg/kg.
As for `CC(C)(C)CCCCCCC(=O)O`, the LD50 was 2070 mg/kg.
Regarding `COc1ccc2c(=O)c(C)c(-c3ccccc3)oc2c1CN(C)C`, the LD50 was 40 mg/kg and 14 mg/kg.
For the compound `Cc1ccc(C(N)=O)cc1N`, the LD50 is 1730 mg/kg.
For `CNC(=O)Oc1ccc(C)c(C)c1C`, the LD50 was 318 mg/kg.
Regarding `CCCCC(CC)COCC1CO1` (stereo unspecified), the LD50 is 7800 mg/kg.
Take `CN1CCN(CCCCOc2ccccc2C=Cc2ccccc2)CC1`: the LD50 was 2300 mg/kg.
With `CC(C)(C#N)Nc1nc(Cl)nc(NC2CC2)n1`, the LD50 is 290 mg/kg.
Take `NCCCCCCC(=O)O`: the LD50 is 9000 mg/kg.
